Measurements reported in the supplement of paper PMC10307832.

Key:
Assay in all cases: relative viability (nuclei count vs DMSO), 5 days (fraction); higher = more cells survive
[1] = compound: C1=CC=C2C(=C1)N=C(S2)C(C#N)C3=NC(=NC=C3)NCCC4=CN=CC=C4 + Nc1nc2[nH]cc(CCc3ccc(C(=O)N[C@@H](CCC(=O)O)C(=O)O)cc3)c2c(=O)[nH]1 [Pemetrexed] (partner 0.2 µM)
Procedure, shortened: (§1)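 A single step with final 0.05% Triton X-100, 1% formaldehyde and 1 ug/ml Hoechst fixed the cells and stained nuclei 5 days after treatment. Lung cancer cell lines in 1536-well plates had been treated by pin tool the day after seeding with one drug alone or a fixed anchor-drug dose plus five library-drug doses (not always all listed) in √10 steps, and nuclei were counted on 4× images. Relative viability is the ratio of nuclei in treated wells to nuclei in vehicle wells, taken as the median of duplicate plates.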

[2] = compound: COc1cc(N2CCC(N3CCN(C)CC3)CC2)ccc1Nc1ncc(Cl)c(Nc2ccccc2S(=O)(=O)C(C)C)n1 [NVP-TAE684] + CC(=O)c1c(C)c2cnc(Nc3ccc(N4CCNCC4)cn3)nc2n(C2CCCC2)c1=O [Palbociclib] (partner 0.5 µM)
Procedure, shortened: as §1

[3] = compound: COc1cc2/c(=N/c3ccc(Br)cc3F)nc[nH]c2cc1OCC1CCN(C)CC1 [Vandetanib] + CC(C)C[C@H](NC(=O)[C@H](Cc1ccccc1)NC(=O)c1cnccn1)B(O)O [Bortezomib] (partner 0.002 µM)
Procedure, shortened: as §1

[4] = compound: COc1cc2/c(=N/c3ccc(Br)cc3F)nc[nH]c2cc1OCC1CCN(C)CC1 [Vandetanib] + C[C@]1(O)C[C@@H](c2nc(-c3ccc4ccc(-c5ccccc5)nc4c3)c3c(N)nccn32)C1 [Linsitinib] (partner 1 µM)
Procedure, shortened: as §1

Cell Line	relative viability ([1]; first compound 0.005 µM)	relative viability ([1]; first compound 0.01581 µM)	relative viability ([1]; first compound 0.05 µM)	relative viability ([1]; first compound 0.1581 µM)	relative viability ([1]; first compound 0.5 µM)	relative viability ([2]; first compound 0.2 µM)	relative viability ([2]; first compound 0.6325 µM)	relative viability ([2]; first compound 2 µM)	relative viability ([3]; first compound 0.02 µM)	relative viability ([3]; first compound 0.06325 µM)	relative viability ([3]; first compound 0.2 µM)	relative viability ([3]; first compound 0.6325 µM)	relative viability ([3]; first compound 2 µM)	relative viability ([4]; first compound 0.02 µM)	relative viability ([4]; first compound 0.06325 µM)	relative viability ([4]; first compound 0.2 µM)	relative viability ([4]; first compound 0.6325 µM)	relative viability ([4]; first compound 2 µM)
EMC-BAC-2	0.488	0.442	0.414	0.477	0.429	0.483	0.499	0.357	1.02	1.04	1.01	1.03	1.04	0.792	0.772	0.612	0.77	0.673
NCI-H441	0.317	0.279	0.238	0.276	0.265	0.182	0.192	0.154	0.449	0.459	0.373	0.547	0.386	0.597	0.538	0.498	0.592	0.472
NCI-H1993	0.53	0.627	0.555	0.728	0.542	0.437	0.614	0.475	1.03	0.905	1.04	0.807	0.719	0.803	0.639	0.662	0.762	0.675
NCI-H3122	0.187	0.197	0.206	0.214	0.194	0.103	0.0833	0.0801	0.978	1.03	1.05	0.953	1	1.01	0.946	0.957	0.964	0.993
NCI-H1651	0.41	0.527	0.597	0.708	0.381	0.506	0.572	0.468	0.915	0.883	0.893	0.897	0.839	1	0.87	0.956	0.873	0.806
NCI-H1355	1.05	1.01	1.02	1.13	1.02	0.366	0.368	0.269	1.22	1.18	1.16	1.22	1.27	0.732	0.732	0.551	0.812	0.755
NCI-H23		0.511	0.701	0.779	0.641	0.439	0.5	0.241	1	0.944	1.06	0.785	0.884	0.685	0.531	0.519	0.57	0.425
HCC-366	0.177	0.146	0.145	0.165	0.164	0.352	0.4	0.166	1.05	0.983	0.867	0.909	1.02	0.644	0.488	0.584	0.636	0.526
